According to patent US9593305B2, “Differentiation of pluripotent stem cells” (Janssen Biotech, Inc., priority 2008, dated 2017):

Tested on: H1 human embryonic stem cells
Experiment: Definitive endoderm formation with GDF family members, SOX17 and cell number (Example 13)
Format: cell-based
Settings: for SOX17 expression, reagent alone: 20 ng/ml Wnt3a or 2.5 μM compound alone, four days; for SOX17 induction in combination with GDF-8: 2.5 μM compound with 100 ng/ml GDF-8, exceeding activin A/Wnt3a positive control
Method: Stock cultures of human embryonic stem cells (H1 human embryonic stem cell line) were maintained in an undifferentiated, pluripotent state on reduced growth factor […]™ (BD Biosciences; Cat #356231)-coated dishes in MEF conditioned medium with passage on average every four days. Passage was performed by exposing cell cultures to a solution of 1 mg/ml dispase (Invitrogen; Cat #17105-041) for 5 to 7 minutes at 37° C. followed by rinsing the monolayer with MEF conditioned culture medium and gentle scraping to recover cell clusters. Clusters were centrifuged at low speed to collect a cell pellet and remove residual dispase. Cell clusters were split at a 1:3 or 1:4 ratio for routine maintenance culture or a 1:1 ratio for immediate assay. All human ES cell lines were maintained at passage numbers less than 50 and routinely evaluated for normal karyotype and absence of mycoplasma.
Cell clusters were evenly resuspended in MEF conditioned medium supplemented with 8 ng/ml bFGF and seeded onto reduced growth factor […]™-coated 96-well Packard VIEWPLATES (PerkinElmer; Cat #6005182) in volumes of 0.1 ml/well. Daily feeding was conducted by aspirating spent culture medium from each well and replacing with an equal volume of fresh medium. Plates were maintained at 37° C., 5% CO2 throughout the duration of assay.
The assay was initiated by aspirating the culture medium from each well and adding back aliquots (100 μl) of test medium. Test conditions were performed in triplicate over a total four-day assay period, feeding on day 1 and day 3 by aspirating and replacing the medium from each well with fresh test medium. Various members of the GDF family of proteins were obtained for testing as follows: GDF-3 (PeproTech; Cat #120-22); GDF-5 (DePuy Orthopaedics, Inc., a Johnson & Johnson company); GDF-8 (R&D Systems; Cat #788-G8); GDF-10 (R&D Systems; Cat #1543-BP); GDF11 (PeproTech; Cat #120-11); GDF-15 (R&D Systems; Cat #957-GD). On the first day of assay, all wells received an aliquot (80 μl) of basal medium DMEM:F12 medium (Invitrogen; Cat #11330-032) supplemented with 0.5% fetal bovine serum (Hyclone; Cat #SH30070.03). A series of five different control or experimental test samples was created to evaluate activin A or various GDFs in combination with Wnt3a or Compound 34 or Compound 56. These test samples were added in 20 μl aliquots (5× concentrated) to appropriately matched assay wells to yield a final assay volume of 100 μl in each well at the final assay conditions indicated. In the first set of control samples, the following conditions were tested: 1) no additive (i.e. no supplementary growth factor or small molecule); 2) 100 ng/ml activin A (PeproTech; Cat #120-14) in combination with 20 ng/ml Wnt3a (R&D Systems; Cat #1324-WN/CF); 3) 20 ng/ml Wnt3a alone; 4) Compound 34 alone (2.5 μM) without any growth factor or small molecule; 5) Compound 56 alone (2.5 μM) without any growth factor or small molecule. In the second set of test samples, the following conditions were tested in combination with 100 ng/ml GDF3: 1) no additive (i.e. GDF-3 alone); 2) 20 ng/ml Wnt3a; 3) 20 ng/ml Wnt3a with Compound 34 (2.5 μM); 4) Compound 34 (2.5 μM); 5) Compound 56 (2.5 μM); and 6) 20 ng/ml Wnt3a with Compound 56 (2.5 μM). In the third set of test samples, each of the six conditions was combined with 100 ng/ml GDF-5. In the fourth set of test samples, each of the six conditions was combined with 100 ng/ml GDF-8. In the fifth set of test samples, each of the six conditions was combined with 100 ng/ml GDF-10. In the sixth set of test samples, each of the six conditions was combined with 100 ng/ml GDF-11. In the seventh set of test samples, each of the six conditions was combined with 100 ng/ml GDF-15. On the third day of assay, all wells for all test samples, received 100 ng/ml Activin A or 100 ng/ml respective GDF growth factor, without Wnt3a or Compound 34 or Compound 56, diluted into DMEM:F12 medium supplemented with 2% FBS. […]

SMILES: O=C1CCN2CCN(CC2)Cc2cc(Cl)cc(c2)Nc2ncnc(n2)-c2cncc(c2)CCCN1 [Compound 34, 5-Chloro-1,8,10,12,16,22,26,32-octaazapentacyclo[24.2.2.1˜3.7˜0.1˜9,13˜0.1˜14.18˜]tritriaconta-3(33), 4,6,9(32), 10,12,14(31), 15,17-nonaen-23-one]
- SOX17 expression, reagent alone: failed to induce SOX17 expression
- SOX17 induction in combination with GDF-8: robust induction of SOX17

SMILES: Cc1c[nH]c(-c2cnc(NCCNc3ccc(C#N)cn3)nc2-c2ccc(Cl)cc2Cl)n1 [Compound 56, 6-[(2-{[4-(2,4-Dichlorophenyl)-5-(4-methyl-1H-imidazol-2-yl)pyrimidin-2-yl]amino}ethyl)amino]pyridine-3-carbonitrile]
- SOX17 expression, reagent alone: failed to induce SOX17 expression
- SOX17 induction in combination with GDF-8: robust induction of SOX17
